These results are taken from US5258406A, “Sulfonimidamides” (priority 1992, dated 1993).

For one series, the system named is VRC5. The series is classed as in vivo. As to conditions: oral. The method, then: (§1) The compounds were tested in C3H mice bearing a 6C3HED lymphosarcoma, also known as the Gardner lymphosarcoma (GLS), and in a variety of human tumor xenografts in CD1 nu/nu mice, including CX-1, LX-1, HXGC3, and VRC5. The 6C3HED lymphosarcoma was obtained from the Division of Cancer Treatment, National […] Institute, Tumor Bank, maintained at E. G. and G. Mason Research (Worcester, Mass.). The CX-1 human colon carcinoma and the LX-1 human lung carcinoma xenografts were obtained from the National Cancer Institute. The HXGC3 and VRC5 human colon xenografts were obtained from Dr. P. J. Houghton, St. Jude Children's Hospital in Memphis (see Br. J. Cancer, 37, 213 (1978)). First passage tumor was stored in liquid nitrogen using standard techniques. The transplanted tumor was reestablished from the Tumor Bank every six months or as needed. The tumor was maintained by serial passage twice weekly in C3H mice.
(§2) In the procedure the tumor was removed from passage animals and minced into 1- to 3-mm square fragments using sterile techniques. Tumor pieces were checked for sterility using both Antibiotic Medium 1 and Brain Heart Infusion (Difco, Detroit, Mich.). Recipient mice were shaved and tumor pieces were implanted subcutaneously in the auxiliary region by trocar. Drug therapy on the appropriate schedule was initiated on the day after tumor implant for 6C3HED and after a seven (7) day delay for xenografts (or other delay as noted in Table 2). The compound being tested was mixed with 2.5% Emulphor EL620 from GAF Corporation (1:40 dilution in saline). Food and water were provided ad libitium. The drug was administered orally in 0.5 ml of 2.5% Emulphor (unless otherwise indicated). The tumor was measured the day after treatment ended with two dimensional measurements (width and length) of the tumor taken using automated digital calipers interfaced to a microcomputer. Approximate weight for the tumor was calculated using the following formula [Worzalla, J. F., et al., Invest. New Drugs, 8, 241 (1990], (tumor weight in mg)=(width in mm)^2 ×(length in mm)/2.
(§3) At least one control group of an equal number of mice was treated with the same volume of 2.5% Emulphor only. The percent inhibition was determined by subtracting the ratio of the mean tumor size of the test group relative to the control group from one and multiplying the result times 100.
(§4) The results of several experiments in mice bearing a 6C3HED lymphosarcoma (or other tumor where indicated) when the indicated compounds were administered are provided in Table 2. In Table 2, column 1 gives the Example number of the compound used, column 2 lists the dose level in mg/kg, column 3 provides the percent inhibition of tumor growth, column 4 gives the number of mice which died relative to the total number of animals in the group, column 5 gives the method of administration of the compound, and column 6 gives the dosage schedule. The protocol used with other tumors was the same as with the 6C3HED lymphosarcoma.

A further series concerns 6C3HED lymphosarcoma. As to the kind of experiment: animal or person. The series is classed as in vivo.
A further series deals with LX1. The class given is in vivo. Conditions: oral, DX 10, from day 7 after implant. Here is the method: as §1, §2, §3, §4
The next series concerns HC1. The class given is in vivo. The method, then:
as §1, §2, §3, §4

The conditions of series [1]: Johnson et al., J. Org. Chem. 44, 2055 (1979); cited from earlier work.

Like-named read-outs stand apart in the source and are kept apart here.

As to `CCCCN=S(=O)(NC(=O)Nc1ccc(Cl)cc1)c1ccc(C)cc1` (stereo not shown) [Example 7, N-[[(4-chlorophenyl)amino]carbonyl]-N'-butyl-4-methylbenzenesulfonimidamide], in the series with VRC5 (50 mg/kg, BIDX 10), the “% inhibition of tumor growth” value stood at 0%. The “Tox/Tot (mice which died / total)” value in the series with VRC5 (50 mg/kg, BIDX 10) is given as 0/10; in the series with 6C3HED lymphosarcoma (oral, 18.75 mg/kg, BIDX 10), 0/10; with 6C3HED lymphosarcoma (oral, 37.5 mg/kg, BIDX 10), 0/10; with 6C3HED lymphosarcoma (oral, 75 mg/kg, BIDX 10), 0/10; with 6C3HED lymphosarcoma (oral, 150 mg/kg, BIDX 10), 0/10. Further, the inhibition in vivo at 18.75 mg/kg with 6C3HED lymphosarcoma (Mus musculus, 6C3HED, po, read-out: % inhibition of tumor growth, oral, 18.75 mg/kg, BIDX 10) came out at 21%. In addition, in the series with 6C3HED lymphosarcoma (Mus musculus, 6C3HED, po, read-out: % inhibition of tumor growth, oral, 37.5 mg/kg, BIDX 10), the inhibition in vivo at 37.5 mg/kg is 45%. Moreover, in the series with 6C3HED lymphosarcoma (Mus musculus, 6C3HED, po, read-out: % inhibition of tumor growth, oral, 75 mg/kg, BIDX 10), the inhibition in vivo at 75 mg/kg amounted to 69%. Also, the inhibition in vivo at 150 mg/kg in the series on 6C3HED lymphosarcoma (Mus musculus, 6C3HED, po, read-out: % inhibition of tumor growth, oral, 150 mg/kg, BIDX 10) was 88%.
`NS(=O)(=NC(=O)Nc1ccc(Cl)cc1)c1ccc(CO)cc1` (stereo not shown) [Example 50]: the “% inhibition of tumor growth” value in the series with LX1 (150 mg/kg) is on record as 32%; in the series on LX1 (300 mg/kg), 34%; in the series on HC1 (IP 0.6 ml, 5 mg/kg, BIDX 14) it was 6%; in the series with HC1 (IP 0.6 ml, 10 mg/kg, BIDX 14) it was 31%; with HC1 (IP 0.6 ml, 20 mg/kg, BIDX 14) it was 33%; in the series on HC1 (IP 0.6 ml, 40 mg/kg, BIDX 14), 71%. Further, the “% inhibition of tumor growth” value with HC1 (oral, 75 mg/kg, BIDX 10) was 46%; with HC1 (oral, 150 mg/kg, BIDX 10), 23%; in the series on VRC5 (150 mg/kg, DX 10) it was 27%; in the series with VRC5 (300 mg/kg, DX 10) it was 59%. Also, the “Tox/Tot (mice which died / total)” value in the series with LX1 (150 mg/kg) was 0/10; in the series with LX1 (300 mg/kg) it was 0/10; with HC1 (IP 0.6 ml, 5 mg/kg, BIDX 14) it was 0/10; in the series with HC1 (IP 0.6 ml, 10 mg/kg, BIDX 14) it was 0/10; in the series with HC1 (IP 0.6 ml, 20 mg/kg, BIDX 14), 0/10; in the series on HC1 (IP 0.6 ml, 40 mg/kg, BIDX 14), 1/10. The “Tox/Tot (mice which died / total)” value was 0/9 in the series with HC1 (oral, 75 mg/kg, BIDX 10); 2/9 in the series with HC1 (oral, 150 mg/kg, BIDX 10); 0/10 with VRC5 (150 mg/kg, DX 10); 0/10 in the series with VRC5 (300 mg/kg, DX 10); 0/10 in the series with 6C3HED lymphosarcoma (IP, 5 mg/kg, BIDX 8); 0/10 in the series with 6C3HED lymphosarcoma (IP, 10 mg/kg, BIDX 8). The “Tox/Tot (mice which died / total)” value in the series with 6C3HED lymphosarcoma (IP, 20 mg/kg, BIDX 8) is listed as 0/10; in the series on 6C3HED lymphosarcoma (IP, 40 mg/kg, BIDX 8), 1/10; in the series with 6C3HED lymphosarcoma (IP, 75 mg/kg, BIDX 8) it was 0/10; in the series with 6C3HED lymphosarcoma (IP, 150 mg/kg, BIDX 8), 0/10; in the series with 6C3HED lymphosarcoma (IP, 150 mg/kg, DX 8), 0/10; in the series on 6C3HED lymphosarcoma (IP, 300 mg/kg, BIDX 8), 9/10. For the same compound, the “Tox/Tot (mice which died / total)” value with 6C3HED lymphosarcoma (IP, 300 mg/kg, DX 8) was 1/10; with 6C3HED lymphosarcoma (oral, 75 mg/kg, BIDX 8), 2/10; in the series on 6C3HED lymphosarcoma (oral, 150 mg/kg, BIDX 8), 2/10; in the series with 6C3HED lymphosarcoma (oral, 300 mg/kg, BIDX 8), 9/10. Moreover, in the series on 6C3HED lymphosarcoma (Mus musculus, 6C3HED, ip, read-out: % inhibition of tumor growth, IP, 5 mg/kg, BIDX 8), the inhibition in vivo at 5 mg/kg turned out to be 34%. In the series with 6C3HED lymphosarcoma (Mus musculus, 6C3HED, ip, read-out: % inhibition of tumor growth, IP, 10 mg/kg, BIDX 8), the inhibition in vivo at 10 mg/kg turned out to be 49%. In addition, in the series with 6C3HED lymphosarcoma (Mus musculus, 6C3HED, ip, read-out: % inhibition of tumor growth, IP, 20 mg/kg, BIDX 8), the inhibition in vivo at 20 mg/kg amounted to 72%. In the series on 6C3HED lymphosarcoma (Mus musculus, 6C3HED, ip, read-out: % inhibition of tumor growth, IP, 40 mg/kg, BIDX 8), the inhibition in vivo at 40 mg/kg came out at 86%. The inhibition in vivo at 75 mg/kg turned out to be 96% in the series on 6C3HED lymphosarcoma (Mus musculus, 6C3HED, ip, read-out: % inhibition of tumor growth, IP, 75 mg/kg, BIDX 8) and 99% in the series with 6C3HED lymphosarcoma (Mus musculus, 6C3HED, po, read-out: % inhibition of tumor growth, oral, 75 mg/kg, BIDX 8). The inhibition in vivo at 150 mg/kg in the series on 6C3HED lymphosarcoma (Mus musculus, 6C3HED, ip, read-out: % inhibition of tumor growth, IP, 150 mg/kg, BIDX 8) was 99%; with 6C3HED lymphosarcoma (Mus musculus, 6C3HED, ip, read-out: % inhibition of tumor growth, IP, 150 mg/kg, DX 8), 93%; with 6C3HED lymphosarcoma (Mus musculus, 6C3HED, po, read-out: % inhibition of tumor growth, oral, 150 mg/kg, BIDX 8), 100%. Further, the inhibition in vivo at 300 mg/kg in the series with 6C3HED lymphosarcoma (Mus musculus, 6C3HED, ip, read-out: % inhibition of tumor growth, IP, 300 mg/kg, BIDX 8) came to 100%; in the series with 6C3HED lymphosarcoma (Mus musculus, 6C3HED, ip, read-out: % inhibition of tumor growth, IP, 300 mg/kg, DX 8), 99%; in the series on 6C3HED lymphosarcoma (Mus musculus, 6C3HED, po, read-out: % inhibition of tumor growth, oral, 300 mg/kg, BIDX 8) it was 100%.
With `CCCCNC(=O)NS(=N)(=O)c1ccc(C)cc1` (stereo not shown) [compound 16, N-butyl-N'-(p-toluenesulfonimidoyl)urea], the “activity in an antidiabetic screen” value in series [1] is “inactive”.
